Data from US20260174786A1, “A NITROGEN-CONTAINING SPIROCYCLIC COMPOUND, PHARMACEUTICAL COMPOSITION AND USE THEREOF” (Prime Gene Therapeutics Co., Ltd., priority 2022, published 2026).

What was measured:
[1] = Pharmacokinetic experiments in male SD rats; type: in vivo, rat
Protocol: Male SD rats were grouped in groups of 3 rats each and orally administered with the compound of Example (10 mg/kg) and intravenously injected with the compound of Example (2 mg/kg). Animals were fasted overnight before the experiment, from 10 hours before administration to 4 hours after administration. Blood samples were collected at 0.25, 0.5, 1, 2, 4, 8, and 24 hours after administration in the oral group, and at 0.083, 0.25, 0.5, 1, 2, 4, 8, and 24 hours after injection in the intravenous group. After anesthesia with isoflurane using a small animal anesthesia machine, 0.3 mL of whole blood was collected through the retinal venous plexus, and placed in a heparin anticoagulant tube. The sample was centrifuged at 4° C. and 4000 rpm for 5 minutes, and the plasma was transferred to the centrifuge tube and stored at −80° C. until analysis. The plasma samples were extracted using protein precipitation method, and the extract was analyzed by LC-MS/MS.

[2] = Balanced dialysis plasma protein binding test (human); type: in vitro ADME
Protocol: (§1) 1. Immersing a dialysis membrane (water: 60 minutes, 20% ethanol: 20 minutes, dialysis buffer: 20 minutes). 2. Diluting the test compound in dimethyl sulfoxide (working solution) to 200 μM. 3. Thawing the plasma in a 37° C. water bath and centrifuge the plasma at 3220 g for 10 minutes to remove blood clots. 4. Transferring the supernatant to a new tube and preheating it in a 37° C. water bath for 10 minutes. 5. Assembling HTD dialysis equipment according to the manufacturer's guidelines. 6. Adding 3 μL of 200 μM test compound to 597 μL of plasma and rotating at 1000 rpm for 2 minutes. 7. Transferring 50 μL of spiked plasma to a 96 well plate, then adding 50 μL of dialysis buffer and 200 μL of methanol, using IS * as the T0 sample. 8. Adding 120 μL of spiked plasma and 120 μL of dialysis buffer in duplicate into the chamber of the HTD dialysis device. 9. Covering the dialysis equipment with a breathable cover and incubating the dialysis equipment and the remaining spiked plasma at 37° C. (100 rpm, 5% CO2) for 6 hours. 10. Transferring 50 μL of dialyzed sample from the dialysis buffer and the plasma chamber to a separate 96 well plate, then adding 50 μL of blank plasma or dialysis buffer and 200 μL of methanol, with IS * as the B and P samples. 11. Transferring 50 μL of remaining spiked plasma (as described in step 9) to a 96 well plate, then adding 50 μL of dialysis buffer and 200 μL of methanol, with IS * as the T6 sample. 12. Centrifuging the sample plate at 3220 g for 40 minutes. 13. Transferring 100 μL of supernatant onto an analytical plate containing an appropriate volume of water for LC-MS/MS. 14. Data analysis.

[3] = Balanced dialysis plasma protein binding test (rat); type: in vitro ADME
Protocol: as §1

[4] = Liver microsome metabolism stability test (rat); type: in vitro ADME; conditions: rat liver microsomes, 1 μM compound
Protocol: (§2) Two separate experiments were conducted. a) NADPH: 10 μL of 20 mg/mL liver microsomes and 40 μL of 10 mM NADPH were added to a culture medium. The final concentrations of microsomes and NADPH were 0.5 mg/mL and 1 mM, respectively. b) NADPH free: 10 μL of 20 mg/mL liver microsomes and 40 μL of ultrapure H2O were added to a culture medium. The final concentration of microsomes was 0.5 mg/mL.
(§3) At the beginning of the reaction, 4 μL of 100 μM test compound solution or a control compound solution with a final concentration of 1 μM were added, and proceed at 37° C.
(§4) 50 μL aliquots were taken from the reaction solution at 0, 7, 15, 30, and 60 minutes. The reaction was stopped by adding 4 volumes of cold acetonitrile and IS (100 nM alprazolam, 200 nM labetalol, 200 nM caffeine, and 2 μM ketoprofen). The samples were centrifuged at 3220 grams for 40 minutes. 100 μL supernatant divided equally was mixed with 100 μL of ultrapure H2O, and use for LC-MS/MS analysis.

[5] = Liver microsome metabolism stability test (human); type: in vitro ADME; conditions: human liver microsomes, 1 μM compound
Protocol: as §2, §3, §4

hTRPA1 = hTRPA1 (Homo sapiens, UniProt O75762); experiment: Inhibition rate on different hTRPs: hTRPA1; type: cell-based
[6] = Stability assessment of compounds at room temperature under 92.5% humidity (LC-MS); type: physicochemical; conditions: 92.5% humidity
Protocol: Taking the compound of Example 21 and KM-001-E1 in WO2021154966A1 as examples, the stability thereof was compared:
Compound of Example 21 and KM-001-E1 were accurately weighed and placed in penicillin bottles, and placed at room temperature under 92.5% humidity (open) conditions for 5-10 days to investigate the stability of the compounds.
• instrument: Thermo U3000-ISQEC • column: Xtimate UHPLC C18 1.8 μm 4.6*50 mm • Column temperature: 35° C. • wavelength: 210 nm, 254 nm • mobile phase A: 0.05% formic acid aqueous solution; mobile phase B: 0.05% formic acid acetonitrile; gradient: 30% B 0-1.2 min, 95% B 1.2-3.3 min, 30% B 3.3-4.5 min;
Analyzing the degradation impurities of each compound under 92.5% humidity conditions using LC-MS: The main impurities in Example 21 had m/z 427.17, with a retention time of 2.55 minutes. After being left for 10 days, the peak area proportion was only 0.3%; The main impurities in KM-001-E1 has m/z=431.14 and m/z=415.16, with retention times of 2.31 minutes and 2.64 minutes, respectively. […] Based on LC-MS and NMR data analysis, it can be inferred that the main impurities produced in Example 21 are ketones, while the main impurities produced in KM-001-E1 are aldehydes and carboxylic acids.

hTRPV1 = hTRPV1 (Homo sapiens, UniProt Q8NER1); experiment: Inhibition rate on different hTRPs: hTRPV1; type: cell-based
hTRPV4 = hTRPV4 (Homo sapiens, UniProt Q9HBA0); experiment: Inhibition rate on different hTRPs: hTRPV4; type: cell-based
[7] = male, SD, rat, plasma, intravenous, 2 mg/kg
[8] = male, SD, rat, plasma, po, gavage, 10 mg/kg

hTRPV4, sequence (Q9HBA0 whole entry): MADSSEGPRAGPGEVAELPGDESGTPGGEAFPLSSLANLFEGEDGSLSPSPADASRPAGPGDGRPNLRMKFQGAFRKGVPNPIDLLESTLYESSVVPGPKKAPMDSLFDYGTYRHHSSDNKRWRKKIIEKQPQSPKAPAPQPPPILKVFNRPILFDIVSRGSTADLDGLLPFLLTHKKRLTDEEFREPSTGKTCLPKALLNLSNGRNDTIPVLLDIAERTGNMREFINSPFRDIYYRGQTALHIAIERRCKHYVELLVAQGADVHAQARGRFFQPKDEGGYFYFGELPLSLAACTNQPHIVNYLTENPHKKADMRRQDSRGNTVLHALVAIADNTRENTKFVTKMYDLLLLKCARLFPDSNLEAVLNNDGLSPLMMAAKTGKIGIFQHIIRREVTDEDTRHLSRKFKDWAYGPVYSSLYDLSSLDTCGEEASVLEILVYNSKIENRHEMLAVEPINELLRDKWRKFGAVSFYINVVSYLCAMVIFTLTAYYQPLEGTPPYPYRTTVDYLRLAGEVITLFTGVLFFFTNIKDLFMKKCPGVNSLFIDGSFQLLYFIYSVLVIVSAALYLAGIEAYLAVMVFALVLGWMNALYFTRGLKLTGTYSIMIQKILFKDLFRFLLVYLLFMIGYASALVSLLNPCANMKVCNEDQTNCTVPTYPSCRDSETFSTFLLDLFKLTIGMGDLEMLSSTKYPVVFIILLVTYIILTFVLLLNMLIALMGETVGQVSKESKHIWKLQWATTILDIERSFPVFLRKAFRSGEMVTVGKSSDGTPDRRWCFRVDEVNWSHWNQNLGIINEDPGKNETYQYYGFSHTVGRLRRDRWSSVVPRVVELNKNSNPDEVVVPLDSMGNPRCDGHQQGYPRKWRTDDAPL
hTRPA1, sequence (O75762 whole entry): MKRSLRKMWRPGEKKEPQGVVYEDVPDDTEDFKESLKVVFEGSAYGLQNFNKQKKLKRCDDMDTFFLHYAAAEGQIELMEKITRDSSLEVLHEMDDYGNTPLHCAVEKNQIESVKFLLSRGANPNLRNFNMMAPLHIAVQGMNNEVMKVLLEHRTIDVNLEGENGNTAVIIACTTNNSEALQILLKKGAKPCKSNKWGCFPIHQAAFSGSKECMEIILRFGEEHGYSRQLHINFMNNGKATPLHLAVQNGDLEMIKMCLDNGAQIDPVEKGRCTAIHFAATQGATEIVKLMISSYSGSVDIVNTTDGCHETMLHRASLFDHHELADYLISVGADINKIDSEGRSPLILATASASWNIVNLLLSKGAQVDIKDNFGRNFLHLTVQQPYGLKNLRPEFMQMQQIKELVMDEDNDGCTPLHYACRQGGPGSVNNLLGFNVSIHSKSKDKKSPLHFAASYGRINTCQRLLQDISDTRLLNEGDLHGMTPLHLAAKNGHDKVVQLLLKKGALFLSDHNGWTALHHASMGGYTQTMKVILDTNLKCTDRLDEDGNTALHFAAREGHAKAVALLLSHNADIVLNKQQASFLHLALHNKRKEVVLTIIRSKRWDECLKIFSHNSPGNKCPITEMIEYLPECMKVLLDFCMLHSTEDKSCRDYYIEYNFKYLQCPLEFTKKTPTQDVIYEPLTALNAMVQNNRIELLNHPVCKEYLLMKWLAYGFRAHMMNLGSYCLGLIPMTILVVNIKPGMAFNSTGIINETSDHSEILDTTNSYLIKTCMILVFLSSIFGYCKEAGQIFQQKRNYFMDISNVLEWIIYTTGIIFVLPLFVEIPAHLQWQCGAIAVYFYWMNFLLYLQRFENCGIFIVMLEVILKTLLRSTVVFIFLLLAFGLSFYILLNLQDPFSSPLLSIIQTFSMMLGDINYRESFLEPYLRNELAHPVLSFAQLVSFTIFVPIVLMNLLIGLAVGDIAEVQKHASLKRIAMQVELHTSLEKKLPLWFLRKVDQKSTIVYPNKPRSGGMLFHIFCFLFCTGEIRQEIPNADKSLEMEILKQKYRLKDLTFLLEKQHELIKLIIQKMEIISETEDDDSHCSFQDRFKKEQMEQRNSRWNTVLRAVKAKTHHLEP
hTRPV1, sequence (Q8NER1 whole entry): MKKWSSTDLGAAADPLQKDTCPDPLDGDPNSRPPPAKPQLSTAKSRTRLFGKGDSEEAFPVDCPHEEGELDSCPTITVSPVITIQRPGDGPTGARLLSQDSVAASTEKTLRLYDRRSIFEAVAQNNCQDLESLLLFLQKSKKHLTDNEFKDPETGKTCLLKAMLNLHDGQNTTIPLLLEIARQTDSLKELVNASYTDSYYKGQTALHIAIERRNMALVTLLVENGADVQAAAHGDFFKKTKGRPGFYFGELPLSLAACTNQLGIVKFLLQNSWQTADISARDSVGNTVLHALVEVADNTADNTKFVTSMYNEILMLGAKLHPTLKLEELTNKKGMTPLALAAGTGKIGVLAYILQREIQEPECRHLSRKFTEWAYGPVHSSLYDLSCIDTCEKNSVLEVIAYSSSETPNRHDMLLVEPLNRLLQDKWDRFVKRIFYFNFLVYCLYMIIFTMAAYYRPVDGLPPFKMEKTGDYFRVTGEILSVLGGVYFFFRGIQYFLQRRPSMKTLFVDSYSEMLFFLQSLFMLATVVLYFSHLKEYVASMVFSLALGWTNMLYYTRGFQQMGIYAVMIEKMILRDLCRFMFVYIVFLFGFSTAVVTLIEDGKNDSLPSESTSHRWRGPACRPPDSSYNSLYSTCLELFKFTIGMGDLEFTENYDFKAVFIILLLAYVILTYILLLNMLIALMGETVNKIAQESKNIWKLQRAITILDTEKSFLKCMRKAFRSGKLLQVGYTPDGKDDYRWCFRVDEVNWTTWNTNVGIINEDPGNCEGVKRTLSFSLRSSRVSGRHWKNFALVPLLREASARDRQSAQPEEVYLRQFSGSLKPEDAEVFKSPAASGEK

O=C(c1ccc(F)cn1)N1CCC2(CC(O)c3cc(-c4ccccc4C4CC4)ccc32)C1 (centres unmarked) [Example 15, (5-(2-cyclopropylphenyl)-3-hydroxy-2,3-dihydrospiro[indene-1,3′-pyrrolidine]-1′-yl)(5-fluoropyridin-2-yl) ketone]
F ([1]; gavage, 10 mg/kg): 80.6%
AUC(0-inf) [1, 7]: 10500 ng·h/mL
C0 [1, 7]: 4060 ng/mL
clearance [1, 7]: 3.3 mL/min/kg
half-life [1, 7]: 1.63 h
Vd ([1]; male, SD, rat, plasma, intravenous, 2 mg/kg, read-out: Vss): 0.41 L/kg
AUC(0-inf) [1, 8]: 42200 ng·h/mL
Cmax [1, 8]: 8050 ng/mL
Tmax [1, 8]: 1.33 h
half-life [1, 8]: 1.88 h
recover % [2]: 87.63%
remaining % ([2]; 6 hours): 97.37%
binding % ([2]; 6 hours dialysis): 99.58%
dissociated % ([2]; 6 hours dialysis): 0.42%
recover % [3]: 92.94%
remaining % ([3]; 6 hours): 102.46%
binding % ([3]; 6 hours dialysis): 99.78%
dissociated % ([3]; 6 hours dialysis): 0.22%
in vitro Clint [4]: 53.68 microliters/minute/milligrams
half-life at 1 μM ([4]; read-out: in vitro T1/2): 0.43 h
in vitro Clint [5]: 70.41 microliters/minute/milligrams
half-life at 1 μM ([5]; read-out: in vitro T1/2): 0.328 h

O=C(c1ccc(F)cn1)N1CC[C@@]2(C[C@@H](O)c3cc(-c4ccccc4C4CC4)ccc32)C1 [Example 21, ((1S,3R)-5-(2-cyclopropylphenyl)-3-hydroxy-2,3-dihydrospiro[indene-1,3′-pyrrolidine]-1′-yl)(5-fluoropyridin-2-yl)ketone]
inhibition at 0.3 µM (hTRPA1; hTRPA1, 0.3 μM): 10.7%
Selectivity ratio (hTRPA1; inhibition rate on TRPV3 / inhibition rate on hTRPA1, 0.3 μM): 8.4X
stability compared with KM-001-E1 / compounds of WO2021154966A1 [6]: better chemical stability than the primary alcohol compound in WO2021154966A1
inhibition at 0.3 µM (hTRPV1; hTRPV1, 0.3 μM): 5.62%
Selectivity ratio (hTRPV1; inhibition rate on TRPV3 / inhibition rate on hTRPV1, 0.3 μM): 16.0X
inhibition at 0.3 µM (hTRPV4; hTRPV4, 0.3 μM): 29.3%
Selectivity ratio (hTRPV4; inhibition rate on TRPV3 / inhibition rate on hTRPV4, 0.3 μM): 3.1X
